The supplement of paper PMC10307832

Columns and labels:
Test in all cases: relative viability (nuclei count vs DMSO), 5 days (fraction); higher = more cells survive
Tipifarnib = compound: Cn1cncc1[C@@](N)(c1ccc(Cl)cc1)c1ccc2c(c1)c(-c1cccc(Cl)c1)cc(=O)n2C [Tipifarnib]
In short: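 For viability, nuclei in each treated well were divided by nuclei in vehicle wells and the median across plates was taken. Lung cancer cell lines in 1536-well plates were pinned with five library-drug doses (not always all listed) spaced by √10, cultured 5 days without medium change, and imaged at 4× after Hoechst staining, with plates passing only at control CV below 25% and at least one doubling.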

Tipifarnib + Palbociclib = compound: Cn1cncc1[C@@](N)(c1ccc(Cl)cc1)c1ccc2c(c1)c(-c1cccc(Cl)c1)cc(=O)n2C [Tipifarnib] + CC(=O)c1c(C)c2cnc(Nc3ccc(N4CCNCC4)cn3)nc2n(C2CCCC2)c1=O [Palbociclib] (partner 0.5 µM)
In short: (§1)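 Relative viability equals treated-well nuclei counts divided by vehicle-well nuclei counts. Counts came from 4× images of lung cancer cell lines grown in 1536-well plates for 5 days after pin-tool dosing on the day after seeding. Dosing used one drug alone or a fixed anchor-drug dose plus five library-drug doses (not always all listed) in √10 steps, and values are medians of duplicate plates.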

Tipifarnib + Foretinib = compound: Cn1cncc1[C@@](N)(c1ccc(Cl)cc1)c1ccc2c(c1)c(-c1cccc(Cl)c1)cc(=O)n2C [Tipifarnib] + COc1cc2c(Oc3ccc(NC(=O)C4(C(=O)Nc5ccc(F)cc5)CC4)cc3F)ccnc2cc1OCCCN1CCOCC1 [Foretinib] (partner 0.25 µM)
In short: as §1

Tipifarnib + OSI-027 = compound: Cn1cncc1[C@@](N)(c1ccc(Cl)cc1)c1ccc2c(c1)c(-c1cccc(Cl)c1)cc(=O)n2C [Tipifarnib] + COc1cccc2cc(-c3nc([C@H]4CC[C@H](C(=O)O)CC4)n4ncnc(N)c34)[nH]c12 [OSI-027] (partner 0.5 µM)
In short: as §1

Cell Line	relative viability (Tipifarnib; 0.01 µM)	relative viability (Tipifarnib; 0.03162 µM)	relative viability (Tipifarnib; 0.1 µM)	relative viability (Tipifarnib; 0.3162 µM)	relative viability (Tipifarnib; 1 µM)	relative viability (Tipifarnib + Palbociclib; first compound 0.01 µM)	relative viability (Tipifarnib + Palbociclib; first compound 0.03162 µM)	relative viability (Tipifarnib + Palbociclib; first compound 0.1 µM)	relative viability (Tipifarnib + Palbociclib; first compound 0.3162 µM)	relative viability (Tipifarnib + Palbociclib; first compound 1 µM)	relative viability (Tipifarnib + Foretinib; first compound 0.01 µM)	relative viability (Tipifarnib + Foretinib; first compound 0.03162 µM)	relative viability (Tipifarnib + Foretinib; first compound 0.1 µM)	relative viability (Tipifarnib + Foretinib; first compound 0.3162 µM)	relative viability (Tipifarnib + Foretinib; first compound 1 µM)	relative viability (Tipifarnib + OSI-027; first compound 0.01 µM)	relative viability (Tipifarnib + OSI-027; first compound 0.03162 µM)	relative viability (Tipifarnib + OSI-027; first compound 0.1 µM)	relative viability (Tipifarnib + OSI-027; first compound 0.3162 µM)	relative viability (Tipifarnib + OSI-027; first compound 1 µM)
NCI-H1651	1.02	0.992	1.05	0.992	0.877	0.502	0.52	0.544	0.502	0.511	0.833	0.79	0.85	0.717	0.831	0.65	0.729	0.673	0.558	0.456
NCI-H1666	0.99	0.858	0.858	0.8	0.795	0.684	0.676	0.695	0.626	0.663	0.923	0.888	0.866	0.873	0.748	0.73	0.737	0.585	0.566	0.602
NCI-H1734	0.92	0.865	0.789	0.559	0.448	0.353	0.327	0.323	0.298	0.261	0.902	0.832	0.729	0.458	0.487	0.581	0.444	0.463	0.316	0.365
NCI-H1755	1.02	1	0.976	0.955	0.826	0.464	0.471	0.463	0.445	0.465	0.88	0.889	0.908	0.849	0.456	0.75	0.603	0.677	0.622	0.452
NCI-H1793	0.981	0.802	0.869	0.448	0.462	0.29	0.258	0.228	0.213	0.233	0.626	0.577	0.616	0.44	0.411	0.254	0.326	0.204	0.215	0.216
NCI-H1915	0.772	0.763	0.606	0.494	0.42	0.317	0.318	0.281	0.218	0.241	1.01	0.816	0.606	0.593	0.577	0.445	0.357	0.399	0.325	0.288
NCI-H1944	0.886	0.65	0.514	0.437	0.429	0.324	0.31	0.288	0.28	0.273	0.842	0.803	0.561	0.472	0.459	0.419	0.324	0.307	0.247	0.263
NCI-H1975	0.914	1.11	0.979	0.705	0.59	0.615	0.536	0.524	0.39	0.35	0.936	0.967	0.939	0.604	0.568	0.788	0.701	0.567	0.318	0.31
NCI-H1993	0.966	0.754	0.736	0.593	0.69	0.604	0.531	0.431	0.463	0.413	0.832	0.716	0.589	0.605	0.548	0.469	0.613	0.531	0.644	0.604
NCI-H2009	1.03	0.876	0.766	0.697	0.575	0.204	0.206	0.193	0.298	0.152	1.3	1.11	0.84	0.645	0.7	0.659	0.362	0.335	0.299	0.245
NCI-H2023	0.868	0.665	0.502	0.458	0.288	0.297	0.284	0.238	0.211	0.202	0.958	0.7	0.609	0.336	0.505	0.412	0.273	0.225	0.143	0.132
NCI-H2085	1.04	0.82	0.708	0.661	0.723	0.492	0.431	0.472	0.413	0.506	0.853	0.6	0.493	0.497	0.589	0.738	0.377	0.397	0.367	0.538
NCI-H2087	0.849	0.405	0.332	0.329	0.401	0.212	0.233	0.23	0.11	0.193	0.999	0.371	0.333	0.292	0.3	0.464	0.205	0.232	0.161	0.164
NCI-H2126	1.03	0.992	0.954	0.933	0.566	0.353	0.332	0.345	0.35	0.354	1.06	1.55	1.1	1.12	1.12	0.719	0.719	0.711	0.614	0.435
NCI-H2170	1.04	1.03	0.992	0.789	0.8	0.362	0.377	0.305	0.246	0.27	1.03	1.06	1.01	0.99	0.896	0.668	0.678	0.583	0.55	0.353
NCI-H2228	1.06	0.844	0.687	0.606	0.553	0.971	0.599	0.353	0.551	0.29	1.04	0.815	0.636	0.495	0.672	0.502	0.427	0.363	0.214	0.168
